Here are results for 31 molecules from US11702404B2, “GLP-1R modulating compounds” (priority 2019, dated 2023).

Series [1] has as its target GLP-1R (Homo sapiens, UniProt P43220). Briefly: GLP-1R activation: cAMP increase in CHO cells stably expressing GLP-1R. The format is cell-based.
Series [2] can be described thus: Microsomal stability, human liver microsomes (predicted hepatic clearance). Conditions: predicted from in vitro microsomal stability data.
Where [3] appears, read: cAMP increase, CHO cells stably expressing GLP-1R, 10 point dose response, 30 minutes incubation, read-out: EC50.

The EC50 is the concentration needed to bring the measured effect to its halfway point.

Read-outs that look alike come from different tables or passages of the source.

Sequence of GLP-1R (P43220 24-463): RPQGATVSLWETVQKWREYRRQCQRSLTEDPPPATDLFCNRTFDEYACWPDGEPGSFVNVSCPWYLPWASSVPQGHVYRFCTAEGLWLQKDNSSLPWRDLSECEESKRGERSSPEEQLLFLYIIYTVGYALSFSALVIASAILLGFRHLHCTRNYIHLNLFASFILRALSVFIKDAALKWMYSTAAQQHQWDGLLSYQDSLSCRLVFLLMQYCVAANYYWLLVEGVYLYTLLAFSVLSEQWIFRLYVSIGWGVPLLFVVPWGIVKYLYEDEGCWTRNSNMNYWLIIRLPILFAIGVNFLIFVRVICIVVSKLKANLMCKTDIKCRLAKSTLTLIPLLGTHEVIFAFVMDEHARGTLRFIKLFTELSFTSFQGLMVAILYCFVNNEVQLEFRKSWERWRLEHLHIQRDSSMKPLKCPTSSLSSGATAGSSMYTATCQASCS

Consider `COCCn1c(Cc2cc(F)c(-c3cccc(OCc4ccc(F)nc4)n3)cc2F)nc2ccc(C(=O)O)cc21` [Example 812], for which the half-maximal effective concentration (EC50) in series [1] (setting [3]) was found to be 24.9 nM. For the same molecule, the “Predicted Hepatic Clearance (Pred. Cl.)” value in series [2] was 1.83 mL/min/kg.
On to `COCCn1c(Cc2cc(F)c(-c3cccc(OCc4ccc(Cl)nc4)n3)cc2F)nc2ccc(C(=O)O)cc21` [Example 813], for which the 50% effective concentration (EC50) in series [1] (setting [3]) was determined as 2.98 nM. Moreover, the “Predicted Hepatic Clearance (Pred. Cl.)” value in series [2] is 1.83 mL/min/kg.
For the molecule `COCCn1c(Cc2cc(F)c(-c3cccc(OCc4ccc(C)cc4)n3)cc2F)nc2ccc(C(=O)O)cc21` [Example 814], the EC50 in series [1] (setting [3]) amounted to 2.14 nM. Besides, the “Predicted Hepatic Clearance (Pred. Cl.)” value in series [2] was 6.17 mL/min/kg.
For `COCCn1c(Cc2cc(F)c(-c3cccc(OCc4ccc(F)cc4F)n3)cc2F)nc2ccc(C(=O)O)cc21` [Example 815], in that order: 2.49 nM and 1.83 mL/min/kg.
Take `COCCn1c(Cc2cc(F)c(-c3cccc(OCc4ccc(F)cc4C)n3)cc2F)nc2ccc(C(=O)O)cc21` [Example 816]: the EC50 in series [1] (setting [3]) is 1 nM. Moreover, in series [2], the “Predicted Hepatic Clearance (Pred. Cl.)” value is 9.5 mL/min/kg.
For `COCCn1c(Cc2cc(F)c(-c3cccc(OCc4ccc(CC#N)cc4)n3)cc2F)nc2ccc(C(=O)O)cc21` [Example 817], in series [1] (setting [3]), the EC50 was 10.3 nM. In addition, the “Predicted Hepatic Clearance (Pred. Cl.)” value in series [2] was 9 mL/min/kg.
As for `COCCn1c(Cc2cc(F)c(-c3cccc(OCc4ccc(F)cc4Cl)n3)cc2F)nc2ccc(C(=O)O)cc21` [Example 818], in series [1] (setting [3]), the EC50 was found to be 4.3 nM. Moreover, the “Predicted Hepatic Clearance (Pred. Cl.)” value in series [2] was 6 mL/min/kg.
The matching figures for `O=C(O)c1ccc2nc(Cc3cc(F)c(-c4cccc(OCc5ccc(Cl)cc5)n4)cc3F)n(Cc3ncco3)c2c1` [Example 819]: 0.86 nM and 3.17 mL/min/kg.
`COCCn1c(Cc2cc(F)c(-c3cccc(OCc4ccc(C#N)nc4)n3)cc2F)nc2ccc(C(=O)O)cc21` [Example 820] registered an EC50 in series [1] (EC50 (nM)) of 11.5 nM. Besides, the “Predicted Hepatic Clearance (Pred. Cl.)” value in series [2] was 2.67 mL/min/kg.
As to `COCCn1c(Cc2cc(F)c(-c3cccc(OCc4ccc(Cl)nc4C)n3)cc2F)nc2ccc(C(=O)O)cc21` [Example 821], the EC50 in series [1] (setting [3]) turned out to be 14.8 nM. Also, the “Predicted Hepatic Clearance (Pred. Cl.)” value in series [2] was 2.67 mL/min/kg.
Turning to `COCCn1c(Cc2cc(F)c(-c3cccc(OCc4ccc(C)nc4F)n3)cc2F)nc2ccc(C(=O)O)cc21` [Example 822], the EC50 in series [1] (setting [3]) came out at 3.49 nM. Further, in series [2], the “Predicted Hepatic Clearance (Pred. Cl.)” value was 1.83 mL/min/kg.
On to `COCCn1c(Cc2cc(F)c(-c3cccc(OCc4ccc(Cl)nc4F)n3)cc2F)nc2ccc(C(=O)O)cc21` [Example 823], for which the EC50 in series [1] (setting [3]) worked out at 19.8 nM. Besides, the “Predicted Hepatic Clearance (Pred. Cl.)” value in series [2] was 1.83 mL/min/kg.
As for `COC(=O)N1CC(Cn2c(Cc3cc(F)c(-c4cccc(OCc5ccc(C#N)cc5F)n4)cc3F)nc3ccc(C(=O)O)cc32)(OC)C1` [Example 824], the EC50 in series [1] (setting [3]) turned out to be 197 nM. Moreover, the “Predicted Hepatic Clearance (Pred. Cl.)” value in series [2] was 7.67 mL/min/kg.
`COCCn1c(Cc2cc(F)c(-c3cccc(OCc4ccc(C(N)=O)nc4)n3)cc2F)nc2c(F)cc(C(=O)O)cc21` [Example 825]: in series [1] (setting [3]), the EC50 is 9.09 nM. The “Predicted Hepatic Clearance (Pred. Cl.)” value in series [2] was 1.83 mL/min/kg.
On to `NC(=O)c1ccc(COc2cccc(-c3cc(F)c(Cc4nc5ccc(C(=O)O)cc5n4C[C@@H]4CCO4)cc3F)n2)cn1` [Example 826], for which, in series [1] (setting [3]), the EC50 amounted to 0.28 nM. For the same molecule, the “Predicted Hepatic Clearance (Pred. Cl.)” value in series [2] is 3.67 mL/min/kg.
With `N#Cc1ccc(COc2cccc(-c3cc(F)c(Cc4nc5ccc(C(=O)O)cc5n4CCOCC(F)(F)F)cc3F)n2)c(F)c1` [Example 827], the EC50 in series [1] (setting [3]) came to 1.97 nM. For the same molecule, the “Predicted Hepatic Clearance (Pred. Cl.)” value in series [2] was 7.17 mL/min/kg.
As for `N#Cc1ccc(COc2cccc(-c3cc(F)c(Cc4nc5ccc(C(=O)O)cc5n4CCOCC(F)F)cc3F)n2)c(F)c1` [Example 828], the half-maximal effective concentration (EC50) in series [1] (setting [3]) came out at 3.5 nM. Further, the “Predicted Hepatic Clearance (Pred. Cl.)” value in series [2] was 8.5 mL/min/kg.
Regarding `O=C(O)c1ccc2nc(Cc3ccc(-c4cccc(OCc5ccc(C(F)F)cc5F)n4)cc3F)n(C[C@@H]3CCO3)c2c1` [Example 829], in series [1] (setting [3]), the EC50 was 0.18 nM. Besides, the “Predicted Hepatic Clearance (Pred. Cl.)” value in series [2] was 1.83 mL/min/kg.
Turning to `N#Cc1ccc(COc2cccc(-c3cc(F)c(Cc4nc5ccc(C(=O)O)cc5n4CCOc4ccccc4)cc3F)n2)c(F)c1` [Example 830], the EC50 in series [1] (setting [3]) came out at 448 nM. Further, the “Predicted Hepatic Clearance (Pred. Cl.)” value in series [2] is 2.5 mL/min/kg.
In the case of `N#Cc1ccc(COc2cccc(-c3cc(F)c(Cc4nc5c(F)cc(C(=O)O)cc5n4C[C@@H]4CCCO4)cc3F)n2)c(F)c1` [Example 831], the EC50 in series [1] (setting [3]) was determined as 0.24 nM. In addition, in series [2], the “Predicted Hepatic Clearance (Pred. Cl.)” value is 2.83 mL/min/kg.
With `Cc1csc(NCCn2c(Cc3cc(F)c(-c4ccnc(OCc5ccc(C#N)cc5F)n4)cc3F)nc3ccc(C(=O)O)cc32)n1` [Example 832], the EC50 in series [1] (read-out: EC50) was 2330 nM. Further, in series [2], the “Predicted Hepatic Clearance (Pred. Cl.)” value was 14.3 mL/min/kg.
Turning to `CC(C1CCCO1)n1c(Cc2cc(F)c(-c3cccc(OCc4ccc(C#N)cc4F)n3)cc2F)nc2ccc(C(=O)O)cc21` (centres unmarked) [Example 833], the EC50 in series [1] (setting [3]) is 6.41 nM. Also, the “Predicted Hepatic Clearance (Pred. Cl.)” value in series [2] is 9.83 mL/min/kg.
Turning to `N#Cc1ccc(COc2cccc(-c3ccc(Cc4nc5ccc(C(=O)O)cc5n4C[C@@H]4CCCO4)cc3F)n2)c(F)c1` [Example 834], in series [1] (setting [3]), the EC50 was determined as 0.69 nM. Moreover, the “Predicted Hepatic Clearance (Pred. Cl.)” value in series [2] is 6.33 mL/min/kg.
As for `N#Cc1ccc(COc2cccc(-c3cc(F)c(Cc4nc5ccc(C(=O)O)cc5n4CCNc4ccccn4)cc3F)n2)c(F)c1` [Example 835], the concentration for a half-maximal effect (EC50) in series [1] (read-out: EC50) amounted to 515 nM. Also, the “Predicted Hepatic Clearance (Pred. Cl.)” value in series [2] is 11.2 mL/min/kg.
As to `COCCn1c(Cc2cc(F)c(-c3cccc(OCc4ccc(C#N)cc4F)n3)cc2F)nc2cc(OC)c(C(=O)O)cc21` [Example 836], the EC50 in series [1] (setting [3]) is 9.29 nM. In addition, the “Predicted Hepatic Clearance (Pred. Cl.)” value in series [2] was 1.83 mL/min/kg.
Turning to `COCCn1c(Cc2cc(F)c(-c3cccc(OCc4ccc(C#N)cc4F)n3)cc2F)nc2cc(Cl)c(C(=O)O)cc21` [Example 837], the EC50 in series [1] (setting [3]) was determined as 29.3 nM. Besides, the “Predicted Hepatic Clearance (Pred. Cl.)” value in series [2] was 1.83 mL/min/kg.
The matching figures for `N#Cc1ccc(COc2cccc(-c3cc(F)c(Cc4nc5ccc(C(=O)O)cc5n4C4CCCOC4)cc3F)n2)c(F)c1` (centres unmarked) [Example 838]: 3.6 nM and 4.33 mL/min/kg.
As for `CC1(Cn2c(Cc3cc(F)c(-c4cccc(OCc5ccc(C#N)cc5F)n4)cc3F)nc3ccc(C(=O)O)cc32)CCOCC1` [Example 839], the EC50 in series [1] (setting [3]) came out at 7.04 nM. The “Predicted Hepatic Clearance (Pred. Cl.)” value in series [2] is 5.83 mL/min/kg.
On to `N#Cc1ccc(COc2cccc(-c3cc(F)c(Cc4nc5ccc(C(=O)O)cc5n4C[C@@H]4CCCO4)cc3F)n2)c(F)c1` [Example 840], for which the EC50 in series [1] (setting [3]) turned out to be 1.11 nM. For the same molecule, the “Predicted Hepatic Clearance (Pred. Cl.)” value in series [2] is 4.83 mL/min/kg.
On to `COCCn1c(Cc2ccc(-c3cccc(OCc4ccc(C#CC(C)(C)O)cc4F)n3)cc2F)nc2ccc(C(=O)O)cc21` [Example 841], for which the EC50 in series [1] (setting [3]) was determined as 164 nM. Moreover, the “Predicted Hepatic Clearance (Pred. Cl.)” value in series [2] is 6.17 mL/min/kg.
Take `COCCn1c(Cc2ccc(-c3cccc(OCc4ccc(C#Cc5cncnc5)cc4F)n3)cc2F)nc2ccc(C(=O)O)cc21` [Example 842, 2-(2-fluoro-4-(6-((2-fluoro-4-(pyrimidin-5-ylethynyl)benzyl)oxy)pyridin-2-yl)benzyl)-1-(2-methoxyethyl)-1H-benzo[d]imidazole-6-carboxylic acid]: the EC50 in series [1] (setting [3]) was found to be 4.73 nM. The “Predicted Hepatic Clearance (Pred. Cl.)” value in series [2] was 1.83 mL/min/kg.
